In brackets after ≈: the same amount, converted by molar mass.
Assays:
[1] = MONTERO et al; cited from earlier work
leucemia L 1210 IGR = assay: "in vivo" activity on leucemia L1210 IGR, 20 mg/kg i.p. days 1, 5, 9; parameters: species or system mouse; details: for percentage of cured mice: surviving more than 60 days
Experimental: Female DBA2 mice were used, about 8 weeks old and weighing about 20 g from the IFFA-CREDO center (les Oncins, 69210 Arbresles)
At day "0", each mouse received intraperitoneally an inoculum of […] in a volume of 0.2 ml.
After tumoral graft, the mice were distributed at random into 21 cages of 5 animals, themselves then distributed, by drawing lots, into 6 experimental series. Within these 6 experimental series, there were constituted a control series of 6 cages and 5 experimental series of 3 cages each, and of which the mice were intended to be treated by the compounds of the invention.
(§1) The protocol was identical for the 3 tumors and the 5 compounds of the invention to be tested.
(§2) As regards the experimental series to be treated, each mouse received, at days 1, 5 and 9, intraperitoneally, a dose of 20 mg/kg of the compound to be tested, in the volume of 0.2 ml of neutralized and sterilized olive oil.
(§3) As regards the control series, each mouse received, intraperitoneally, 0.2 ml of neutralized and sterilized olive oil.
(§4) The results are expressed by the relative increase in survival (T/C×100) calculated from the average survival of the treated animals (T) and that of the control animals (C)
(§5) The mice surviving more than 60 days were considered as cured.
(§6) The figures between parentheses indicate the percentage of cured mice.

Tumor LEWIS 3LL = assay: "in vivo" activity on Lewis tumor, 20 mg/kg i.p. days 1, 5, 9; parameters: species or system mouse; details: for percentage of cured mice: surviving more than 60 days
Experimental: Procedure was under the conditions which have just been described previously with regard to melanoma B16, by injecting the tumor cells, in the proportion of 2×10^6 per mouse, in the volume of 0.2 ml.
as §1, §2, §3, §4, §5, §6

L 1210 cell = assay: 20% cytotoxic index, trypan blue exclusion, 24 h (TEST N° 1); assay type: cell-based, mouse; parameters: key to DOSE CORRESPONDING TO A 20% CYTOTOXIC INDEX: N.S.: not significant; details: L1210 cells, 24 hours at 37° C.; for IC20: Mus musculus, read-out: DOSE COR[…] A 20% CYTOTOXIC INDEX, read-out: DOSE CORRESPONDING TO A 20% CYTOTOXIC INDEX
Experimental: (§7) The test used is that of W. J. Durkin et al. Cancer Research 1979, 39, 402-407, modified.
(§8) All the nitrosoureas were dissolved in 70% ethanol in the proportion of 10 mg/ml.
1--Determination of the 20% cytotoxic index
100 μl of an L 1210 cell suspension (10^6 cells per ml) in R P M I 1640 culture medium supplemented with 10% of fetal calf serum and 40 μg/ml of gentamycin, containint various doses of the products to be tested (0 to 100 μg/ml) were incubated 24 hours at 37° C. At the end of this time, the cell viability is determined by the trypan blue exclusion test. The cytotoxic index is defined by the formula: [formula]
The amount of ethanol is the same in the cultures containing the products to be tested and in the control cultures (this amount has no effect either on growth nor on cell viability).
For each product the dose which gives a cytotoxic index of 20% is determined.

L 1210 USA Tumor = assay: "in vivo" activity on L1210 U.S.A. tumor, 5 mg/kg i.p. days 1, 5, 9; parameters: species or system mouse
Experimental: The tumor L1210 U.S.A. is more resistant than tumor L1210 IGR.
(§9) The experiments were identical to those described in preceding paragraph 4 but lower doses were used.
There were inoculated into the mice, 10^5 tumor cells of L1210 U.S.A. intraperitoneally in a volume of 0.2 ml.
At days 1, 5 and 9, the compounds of the invention under test were injected intraperitoneally, at a lower dose than that used in the experiment described at 4, that is to say in the proportion of 5 mg/kg.

melanoma B16 = assay: "in vivo" activity on melanoma B16, 20 mg/kg i.p. days 1, 5, 9; parameters: species or system mouse; details: for percentage of cured mice: surviving more than 60 days
Experimental: Female C57 B 1/6 mice were used, about 8 weeks old and weighing about 20 g, from the IFFA-CREDO center.
At day "0", each mouse received intraperitoneally an inoculum of 2×10^6 tumor cells in a volume of 0.5 ml.
After tumoral graft, distribution at random was carried out as indicated above, to obtain a control series of 8 cages and 5 experimental series of 4 cages each, and of which the mice were intended to be treated by the compounds of the invention.
as §1, §2, §3, §4, §5, §6

L 1210 IGR TUMOR = assay: "in vivo" activity on L1210 IGR tumor, 5 mg/kg i.p. days 1, 5, 9; parameters: species or system mouse
Experimental: as §9
The same protocol was carried out with the tumor L1210 IGR, by inoculating 10^5 tumor cells of L1210 IGR intraperitoneally in the volume of 0.2 ml then, at days 1, 5 and 9, there were injected intraperitoneally 5 mg/kg of each of the compounds to be tested.

L 1210 cells = assay: cytotoxic index after 1 h contact, potential "in vivo" activity (TEST N° 2); assay type: cell-based, mouse; parameters: key to CYTOTOXIC INDEX: N.S.: not significant; details: for CYTOTOXIC INDEX: 1 hour contact at dose giving 20% index, read after 48 hours; for POTENTIAL "IN VIVO" ACTION: active if cytotoxic index ≥40%
Experimental: as §7, §8
2--Determination of the potential "in vivo" activity
L 1210 cells, under conditions similar to the preceding protocol, were contacted for 1 hour with a dose of the various products tested corresponding to a cytotoxic index equal to 20%. After this time, the cells were placed in culture medium not containing nitrosoureas and incubated at 37° C. After 48 hours, the cytotoxic index was determined.

L 1210 leucemia = details: IMBACH et al; cited from earlier work
leucemia L1210 = assay: effective "in vivo" activity in the mouse, leucemia L1210, compound 2, i.p. days 1, 5, 9
Experimental: The experimentation which is reported below used the compound 2 prepared according to the above example 6 (Ref. IC 81 1183).
The mice (female, average weight 20 g) used were F1 /DBA2 /C57 /B1 (Animal selection and breeding center of the Laboratories of the CNRS, Orleans, La Source).
The mice distributed in cages by drawing lots were inoculated on day "0" with 10^5 leucemia L1210 cells.
The animals were treated with the compound IC 81 1183 intraperitoneally on days 1, 5 and 9.
The suspensions were prepared just before the injection: product 2+neutralized and sterilized olive oil.
The mortality of the animals was observed regularly, the relative increase in the survival (T/C×100) was calculated from the average survival of the treated animals (T) and that of the control animals (C).

[2] = compared with literature curves

SMILES | relative increase in survival (T/C×100) (leucemia L 1210 IGR) | percentage of cured mice (leucemia L 1210 IGR) [%] | relative increase in survival (T/C×100) (Tumor LEWIS 3LL) | percentage of cured mice (Tumor LEWIS 3LL) [%] | IC20 (L 1210 cell) [µg/mL] | Average survival ±2 σm (L 1210 USA Tumor) | Median survival (L 1210 USA Tumor) | T/C × 100 (average survival) (L 1210 USA Tumor) | T/C × 100 (median survival) (L 1210 USA Tumor) | relative increase in survival (T/C×100) (melanoma B16) | percentage of cured mice (melanoma B16) [%] | Average survival ±2 σm (L 1210 IGR TUMOR) | Median survival (L 1210 IGR TUMOR) | T/C × 100 (average survival) (L 1210 IGR TUMOR) | T/C × 100 (median survival) (L 1210 IGR TUMOR) | CYTOTOXIC INDEX (L 1210 cells) | POTENTIAL "IN VIVO" ACTION (L 1210 cells) | oncostatic action on L 1210 leucemia (L 1210 leucemia) | further results
O=NN(CCCl)C(=O)N[C@@H]1O[C@H](CO)[C@@H](O)[C@H](O)[C@H]1O [1-[3-(2-chloro-ethyl) 3-nitroso-ureido]-1-beta-D-glucopyranose] | – | – | – | – | – | – | – | – | – | – | – | – | – | – | – | – | – | – | toxicity on the bone marrow [1]: lower toxicity on the bone marrow
CO[C@@H]1C[C@@H](NC(=O)N(CCCl)N=O)[C@H](OC)[C@@H](C)O1 [IC 1373, Methyl 3-[3-(2-chloroethyl) 3-nitrosoureido] 2,3,6-tridesoxy 4-O-methyl alpha-D-arabinohexopyranoside] | .infin. (The sign 00 indicates that 50% at least of the mice were cured) | 100 | 316 | 30 | 80 (≈ 258 µM) | 10,6 ± 0,44 | 10,6 | 123 | 122 | 165 | 0 | 12,9 ± 0,55 | 13,1 | 142 | 145 | 68% | + (if the cytotoxic index was equal to or greater than 40%, the product concerned would be active "in vivo" in the mouse) | – | –
CO[C@@H]1C[C@@H](N(C)C(=O)N(CCCl)N=O)[C@H](O)[C@@H](C)O1 [IC 1375, Methyl 3-[3-(2-chloroethyl) 1-methyl 3-nitrosoureido] 2,3,6-tridesoxy α-D-arabinohexopyranoside] | – | – | – | – | 60 (≈ 194 µM) | – | – | – | – | – | – | – | – | – | – | 69% | + (if the cytotoxic index was equal to or greater than 40%, the product concerned would be active "in vivo" in the mouse) | – | –
CC(=O)OC[C@H]1OC(OC(C)=O)[C@H](NC(=O)N(CCCl)N=O)[C@@H](OC(C)=O)[C@@H]1OC(C)=O (some centres unmarked) [GCNU, 3-(2-chloro-1-ethyl-2'-desoxy-glucopyranosyl-14,3',4",6'-tetracetate)nitrosourea] | – | – | – | – | – | – | – | – | – | – | – | – | – | – | – | – | – | oncostatic action | –
CC(=O)OC[C@H]1O[C@@H](NC(=O)N(CCCl)N=O)[C@H](OC(C)=O)[C@@H](OC(C)=O)[C@@H]1OC(C)=O [2,3,4,6-tetra-O-acetyl 1-[3-(2-chlor-ethyl)nitroso-3-ureido]-1-desoxy-beta-D-glucopyranose] | – | – | – | – | – | – | – | – | – | – | – | – | – | – | – | – | – | – | toxicity on the bone marrow [1]: lower toxicity on the bone marrow
CC1(C)O[C@@H]2[C@@H](COC(=O)c3ccc([N+](=O)[O-])cc3)OC(NC(=O)N(CCCl)N=O)[C@@H]2O1 (some centres unmarked) [RFCNU, 1-(2-chloro-ethyl)3-(ribofuranosyl-2',3'-isopropylidene-5-paranitro benzoate)-nitrosourea] | – | – | – | – | – | – | – | – | – | – | – | – | – | – | – | – | – | oncostatic action | –
CC(=O)O[C@H]1[C@H](OC(C)=O)COC(NC(=O)N(CCCl)N=O)[C@@H]1OC(C)=O (some centres unmarked) [XPCNU, 1-(2-chloro-ethyl) 3-(xylopyranosyl 2',3',4'-triacetate)-nitrosourea] | – | – | – | – | – | – | – | – | – | – | – | – | – | – | – | – | – | oncostatic action | –
CO[C@@H]1C[C@@H](NC(=O)N(CCCl)N=O)[C@H](O)[C@@H](C)O1 [IC 1183, Methyl 3-[3-(2-chloroethyl) 3-nitrosoureido] 2,3,6-tridesoxy α-D-arabinohexopyranoside] | .infin. (The sign 00 indicates that 50% at least of the mice were cured) | 100 | .infin. (The sign 00 indicates that 50% at least of the mice were cured) | 75 | 50 (≈ 169 µM) | 13,5 ± 0,91 | 14,0 | 157 | 161 | 234 | 5 | 18,7 ± 1,30 | 19 | 207 | 210 | 77% | + (if the cytotoxic index was equal to or greater than 40%, the product concerned would be active "in vivo" in the mouse) | – | T/C (×100) (leucemia L1210; 1.25 mg/kg i.p. days 1, 5, 9): 118; T/C (×100) (leucemia L1210; 2.50 mg/kg i.p. days 1, 5, 9): 158; T/C (×100) (leucemia L1210; 5 mg/kg i.p. days 1, 5, 9): 170; T/C (×100) (leucemia L1210; 10 mg/kg i.p. days 1, 5, 9): 220; T/C (×100) (leucemia L1210; 20 mg/kg i.p. days 1, 5, 9): 00 (T/C=00: for definition: more than 50% of the treated animals were finally cured); T/C (×100) (leucemia L1210; 40 mg/kg i.p. days 1, 5, 9): 00 (T/C=00: for definition: more than 50% of the treated animals were finally cured); T/C (×100) (leucemia L1210; 50 mg/kg i.p. days 1, 5, 9): 100; T/C above 40 mg/kg (leucemia L1210; after 40 mg/kg, rise in toxicity): sudden drop of the T/C; curve of efficiency vs CCNU and Me CCNU (leucemia L1210; [2]): very distinctly higher than those obtained by CCNU and Me CCNU; curve of efficiency vs RFCNU and RPCNU (leucemia L1210; [2]): as good as that obtained with RFCNU and RPCNU; animals cured finally (leucemia L1210; doses of 20 and 40 mg/kg): all the animals at doses of 20 and 40 mg/kg were cured finally; Toxicity (leucemia L1210; ≥60 mg/kg i.p. days 1, 5, 9): Toxicity
CO[C@@H]1C[C@@H](O)[C@H](O)[C@@H](CNC(=O)N(CCCl)N=O)O1 [IC 1350] | 362 | 20 | 325 | 40 | – | 10,5 ± 0,74 | 10,25 | 126 | 118 | 225 | 5 | 14,3 ± 1,23 | 14,25 | 158 | 157 | N.S. | – | – | DOSE CORRESPONDING TO A 20% CYTOTOXIC INDEX (L 1210 cell): N.S.
CC(=O)O[C@@H]1[C@H](OC(C)=O)COC(NC(=O)N(CCCl)N=O)[C@@H]1OC(C)=O (some centres unmarked) [RPCNU, 1-(2-chloro-ethyl) 3-(ribopyranosyl-2',3',4'-triacetate)-nitrosourea] | – | – | – | – | – | – | – | – | – | – | – | – | – | – | – | – | – | oncostatic action | –

— US4902791A, “Nitrosourea derivatives, process for their preparation and medicaments containing them” (Sanofi S.A., priority 1983, dated 1990)
